The source of these data is patent US6407132B1, “Substituted imidazole derivatives and their use as histamine H3 receptor ligands” (James Black Foundation Limited, priority 1997, dated 2002).

Assay [1] has as its target T1, Histamine H3 receptor (Cavia porcellus, UniProt Q9JI35). Nature of the assay: Histamine H3 Radioligand Binding Assay - Guinea Pig Cortex ([3H]-R-α-methylhistamine). More on the design: The cortex was dissected, weighed and homogenised in ice-cold 20 mM Hepes-NaOH buffer; from tissue; host or cells: guinea pig brain cortex membranes. The note with it: guinea pig cortex membranes; 0.1 nM [3H]-R-α-methylhistamine; typical variance ±0.12 log units; read-out: pKI (binding assay) - cortex (converted). As to the method:
Histamine H3 Radioligand Binding Assay—Guinea Pig Cortex
Male Dunkin Hartley guinea pigs (200-300 g) were used. The whole brain was removed and immediately placed in ice-cold 20 mM Hepes-NaOH buffer (pH7.4 at 21±3° C.). The cortex was dissected, weighed and homogenised in ice-cold 20 mM Hepes-NaOH buffer (pH7.4 at 21±3° C.) (50 ml/guinea-pig cortex) using a polytron (Kinematica AG, PT-DA 3020/2TS, 3×3s). The homogenate was centrifuged at 100×g for 5 min and the supernatants pooled and stored at 4° C. The pellets were rehomogenised in fresh ice-cold buffer (80 ml) and recentrifuged (100×g for 5 min). The supernatants were pooled and pellets rehomogenised and recentrifuged (100×g for 5 min). All supernatants were pooled and centrifuged at 39,800×g for 12 min at 4° C. The final pellet was resuspended in 20 mM Hepes-NaOH buffer (pH7.4 at 21±3° C.) to a tissue concentration of 7.5 mg.ml^−1, using a teflon-in-glass homogeniser.
Incubation Conditions and Data Analysis
These were essentially identical to those used for the guinea pig ileum myenteric plexus assay described above, except that the final assay concentration of [^3H]-R-α-methylhistamine was 0.1 nM. Typical variance in this binding assay is ±0.12 log units.

Assay [2] deals with T1, Histamine H3 receptor. Nature of the assay: ileal longitudinal muscle, myenteric plexus functional assay (shift of R-(α)-methylhistamine E/[A] curves, Schild). More on the design: the longitudinal muscle layer and adhering myenteric plexus was teased away; from tissue; host or cells: guinea pig ileal longitudinal muscle with myenteric plexus. Format: cell-based. The note with it: guinea pig ileum longitudinal muscle myenteric plexus, electrically stimulated; antagonism of R-(α)-methylhistamine; typical variance ±0.15 log units; read-out: pKB (functional assay) - ileum (converted). The procedure:
The biological activity of the compounds of the examples was measured using the ileal longitudinal muscle, myenteric plexus assay described by Paton and Aboo Zar (J. Physiol. 1968, 194, 13-33). Male Dunkin-Hartley guinea pigs (250-300 g) were employed. Briefly, a 50 cm portion of ileum proximal to the caecum was removed, after discarding the terminal 20 cm. Ileal segments (3 cm) were cleaned by passing Krebs-Henseleit buffer containing 3 μM mepyramine gently through the ileum using a Pasteur pipette (size: 13.8 cm length, 0.65 cm diameter). To avoid unnecessary damage to the tissue, Krebs-Henseleit buffer was passed through the ileal segment, while it was lying horizontally on a petri dish. Therefore, the ileum was not over-distended and the buffer flowed through with ease. Each segment was then passed over a Pasteur pipette and the longitudinal muscle layer and adhering myenteric plexus was teased away using moist cotton wool, by stroking tangentially away from the mesenteric attachment. The tissues were suspended in 20 ml organ baths containing Krebs-Henseleit buffer at 37±1° C. and gassed with 95% CO2/5% O2. The tissues were ligated to two parallel stainless steel wires, situated between two platinum electrodes (0.76 cm length, 0.06 cm diameter). All measurements were recorded isometrically (Grass FTO3 transducer). Following an initial loading tension of 1 g, the tissues were stimulated with electrical pulses at a frequency of 0.1 Hz and a pulse duration of 0.5 msec, as described by Kosterlitz & Watt (Br. J. Pharmacol. 1968, 266-276). Initially, the tissues were stimulated at supramaximal (1.3 fold times maximal) voltage for a period of 30 min and then the tissues were washed and re-stimulated. A “sighter dose” of the selective histamine H3-receptor agonist, R-(α)-methylhistamine (0.3 μM) (Arrang et al. Nature, 1987, 117-123), was administered. Upon generation of response, the “sighter dose” was removed from the tissues by “washout” (6 washes over 60 min) and during this period the electrical stimulation was switched off. The tissues were then re-stimulated and allowed to stabilise prior to the addition of drug treatments, which were allocated on a randomised block basis to the organ baths. Following the incubation period, a single cumulative E/[A] curve was obtained. The experimental E/[A] curve data was expressed as the percentage inhibition of the peak height of electrically-stimulated contraction. Antagonist affinity values were calculated from the degree of rightward shift of the R-(α)-methylhistamine E/[A] curves using Schild's methods (Arunlakshana & Schild Br. J. Pharmacol. 1959, 48-58). Typical variance in this assay is ±0.15 log units.

For assay [3], the target named is T1, Histamine H3 receptor. Put plainly: Histamine H3 Radioligand Binding Assay - Guinea Pig Ileum ([3H]-R-α-methylhistamine). More on the design: The cortex was dissected, weighed and homogenised in ice-cold 20 mM Hepes-NaOH buffer; from tissue; host or cells: guinea pig brain cortex membranes. The note with it: guinea pig ileum longitudinal muscle myenteric plexus membranes; 3 nM [3H]-R-α-methylhistamine; typical variance 0.12 log units; read-out: pKI (binding assay) - ileum (converted). As to the method: Histamine H3 Radioligand Binding Assay—Guinea Pig Ileum
Male Dunkin Hartley guinea pigs (200-300 g) were used. The small intestine was rapidly removed (cut ˜5 cm from caecum and 5 cm from stomach) and placed in ice-cold 20 mM Hepes-NaOH buffer (pH7.4 at 21±3° C.). The tissue was cut into ˜10 cm segments, flushed through with ice-cold 20 mM Hepes-NaOH buffer and placed in a beaker containing fresh buffer at 4° C. 10 cm segments of ileum were threaded onto a glass pipette and the longitudinal muscle myenteric plexus was peeled away from the circular muscle using damp cotton-wool. […]
Guinea pig ileum longitudinal muscle myenteric plexus membranes (400μl) were incubated for 165 min at 21±3° C. in a final volume of 500 μl with 20 mM Hepes-NaOH buffer containing [^3H]-R-α-methylhistamine (50 μl; 3 nM) and competing compound. […] The filters were washed (3×3 ml) with ice-cold 50 mM Tris-HCl (pH6.9 at 21±3° C.), transferred into scintillation vials, 5 ml liquid scintillation cocktail was added and after 4 hours the bound radioactivity was determined by counting (4 min) in a Beckman liquid scintillation counter.
Data are analysed using GraphPad prism and the general equation for a competition curve with variable Hill slope (nH). […]
KD is the equilibrium dissociation constant for the radioligand determined by saturation experiments. […]

The structures appear in SMILES notation.

T1 sequence (Q9JI35 whole entry): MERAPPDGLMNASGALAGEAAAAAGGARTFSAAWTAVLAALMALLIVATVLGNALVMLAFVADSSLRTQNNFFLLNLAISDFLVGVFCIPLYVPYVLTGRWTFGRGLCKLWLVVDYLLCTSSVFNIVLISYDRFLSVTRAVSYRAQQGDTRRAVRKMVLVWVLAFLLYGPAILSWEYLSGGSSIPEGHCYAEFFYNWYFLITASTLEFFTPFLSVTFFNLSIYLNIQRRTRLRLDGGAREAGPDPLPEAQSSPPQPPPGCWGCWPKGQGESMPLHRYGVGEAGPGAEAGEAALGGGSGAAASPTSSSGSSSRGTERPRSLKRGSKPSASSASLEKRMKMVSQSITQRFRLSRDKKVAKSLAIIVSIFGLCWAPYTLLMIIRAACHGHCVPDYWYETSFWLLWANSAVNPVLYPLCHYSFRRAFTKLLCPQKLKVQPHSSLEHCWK

Turning to `O=S(=O)(Cc1ccc(Cl)cc1)Nc1ccc(Cc2c[nH]cn2)cc1` [Example 4, C-(4-Chloro-phenyl)-N-[4-(1H-imidazol-4-ylmelhyl)-phenyl]-methanesulfonamide], at Histamine H3 receptor [1], the Ki was 93.3 nM. For the same compound, on Histamine H3 receptor [2], the Kb was 407 nM.

With `O=S(=O)(NCc1ccc(Cl)cc1)NCc1ccc(Cc2c[nH]cn2)cc1` [Example 3, N-(4-Chloro-benzyl)-N′-[4-(1H-imidazol-4-ylmethyl)-benzyl]-sulfamide], at Histamine H3 receptor [1], the Ki was 15.8 nM. In addition, on Histamine H3 receptor [2], the Kb is 112 nM.

Turning to `O=S(=O)(Cc1ccc(Cl)cc1)Nc1ccc(-c2c[nH]cn2)cc1` [Example 5, C-(4-Chloro-phenyl)-N-[4-(1H-imidazol-4-yl)-pheriyl]-methanesulfonamide], the Ki at Histamine H3 receptor [1] was 1410 nM.

Turning to `O=S(=O)(Cc1ccc(Cl)cc1)NCc1ccc(Cc2c[nH]cn2)cc1` [Example 2, C-(4-Chlorophenyl)-N-[4-(1H-imidazol-4-ylmethyl)-benzyl]-methanesulfonamide], the Ki at Histamine H3 receptor [3] is 141 nM; at Histamine H3 receptor [1], 28.8 nM. Besides, the Kb at Histamine H3 receptor [2] is 70.8 nM.

Turning to `O=S(=O)(NCc1ccc(Cc2c[nH]cn2)cc1)c1ccc2ccccc2c1` [Example 1], the values for the Ki at Histamine H3 receptor [3] and at Histamine H3 receptor [1] were 339 nM and 324 nM, respectively. The Kb on Histamine H3 receptor [2] is 229 nM.

For `O=S(=O)(Cc1ccc(Cl)cc1)NCc1cccc(Cc2c[nH]cn2)c1` [Example 6, C-(4-Chloro-phenyl)-N-[3-(1H-imidazol-4-ylmethyl)-benzyl]-methanesulfonamide], the Ki on Histamine H3 receptor [1] was 372 nM.

With `O=S(=O)(Cc1ccc(Cl)cc1)NCCc1ccc(Cc2c[nH]cn2)cc1` [Example 7, C-(4-Chloro-phenyl)-N-{2-[4-(1H-imidazol-4-ylmethyl)-phenyl]-ethyl}-methanesulfonamide], the Ki on Histamine H3 receptor [1] is 288 nM. In addition, on Histamine H3 receptor [2], the Kb was 955 nM.
